Results taken from patent US5922681A, “Endothelin antagonists” (Warner-Lambert Company, priority 1992, dated 1999).
Several values for one entry are separate records, joined by “and”; a condition that tells them apart may be missing. Identical values can stand only once.

Columns and labels:
[1] = biological target: endothelin receptor (Human Placenta); test: [125I]-ET-1 receptor binding, Human Placenta
Procedure: (§1) The compounds of Formula I are valuable antagonists of endothelin. […] Compounds of Formula I were tested for their ability to inhibit [^125 I]-ET-1([^125 I]-Endothelin-1) binding in a receptor assay according to the following procedures Doherty, A. M., et al, J. Cardiovascul. Pharmacol. 17(Suppl 7):S59-61 (1991) and Doherty, A. M., et al, Bio. Org.

[2] = biological target: endothelin receptor (Rat Heart); test: [125I]-ET-1 receptor binding, Rat Heart
Procedure: as §1

[3] = biological target: T1, ETA (rabbit renal artery vascular smooth muscle cells) (Oryctolagus cuniculus, UniProt A5A8K3); test: Endothelin receptor binding assay-A (ERBA-A), intact cell binding of [125I]-ET-1; conditions: for IC50: rabbit renal artery vascular smooth muscle cells, [125I]-ET-1 25 pM
T1 construct: The cells used were rabbit renal artery vascular smooth muscle cells; endogenous in cells; host or cells: rabbit renal artery vascular smooth muscle cells
T1 sequence (A5A8K3 21-427): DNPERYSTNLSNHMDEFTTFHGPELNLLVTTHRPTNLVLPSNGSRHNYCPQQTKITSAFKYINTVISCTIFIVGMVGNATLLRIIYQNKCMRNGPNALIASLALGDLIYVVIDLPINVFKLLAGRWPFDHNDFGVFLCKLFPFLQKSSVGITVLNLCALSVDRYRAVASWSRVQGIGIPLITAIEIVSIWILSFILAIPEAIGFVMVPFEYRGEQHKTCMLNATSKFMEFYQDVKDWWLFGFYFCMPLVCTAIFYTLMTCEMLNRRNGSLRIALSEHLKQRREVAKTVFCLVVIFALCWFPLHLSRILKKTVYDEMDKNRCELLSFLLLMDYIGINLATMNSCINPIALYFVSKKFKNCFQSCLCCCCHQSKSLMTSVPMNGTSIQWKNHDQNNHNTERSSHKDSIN
Procedure: as §1, with “Org. Med. Chem. Lett. in press (1992):” for “Org.”
ENDOTHELIN RECEPTOR BINDING ASSAY-A (ERBA-A) INTACT CELL BINDING OF [^125 I]-ET-1
The cells used were rabbit renal artery vascular smooth muscle cells grown in a 48-well dish (1 cm^2) (confluent cells).
The growth media was Dulbeccos Modified Eagles/Ham's F12 which contained 10% fetal bovine serum and antibiotics (penicillin/streptomycin/fungizone).
The assay buffer was a medium 199 containing Hanks salts and 25 mM Hepes buffer (Gibco 380-2350AJ), supplemented with penicillin/streptomycin/fungizone (0.5%) and bovine serum albumin (1 mg/mL).
Amersham radioiodinated endothelin-1 [^125 I]-ET-1 was used at final concentration of 20,000 cpm/0.25 mL (25 pM).
Second, remove the assay buffers, place the dish on ice, and add 150 μL of cold assay buffer described above to each well. Third, add 50 μL each of cold [^125 I]-ET-1 and competing ligand to the solution (at the same time if possible). Next, place dish in a 37° C. water bath for about 2 hours and gently agitate the dish every 15 minutes. Discard the radioactive incubation mixture in the sink and wash wells three times with […] of cold phosphate buffered saline. Last, add […] of 0.25 molar sodium hydroxide, agitate for 1 hour on a rotator, and then transfer the sodium hydroxide extract to gamma counting tubes and count the radioactivity.

[4] = biological target: T2, ETB (rat cerebellar membranes) (Rattus norvegicus, UniProt P21451); test: Endothelin receptor binding assay-B (ERBA-B), [125I]-ET-1 binding in rat cerebellar membranes; conditions: for IC50: rat cerebellar membranes, [125I]-ET-1 25 pM; for Selectivity ETA / ETB from Table I: ERBA-A versus ERBA-B
T2 construct: thaw one aliquot of frozen rat cerebellar membranes; from tissue; host or cells: rat cerebellar membranes
T2 sequence (P21451 27-442): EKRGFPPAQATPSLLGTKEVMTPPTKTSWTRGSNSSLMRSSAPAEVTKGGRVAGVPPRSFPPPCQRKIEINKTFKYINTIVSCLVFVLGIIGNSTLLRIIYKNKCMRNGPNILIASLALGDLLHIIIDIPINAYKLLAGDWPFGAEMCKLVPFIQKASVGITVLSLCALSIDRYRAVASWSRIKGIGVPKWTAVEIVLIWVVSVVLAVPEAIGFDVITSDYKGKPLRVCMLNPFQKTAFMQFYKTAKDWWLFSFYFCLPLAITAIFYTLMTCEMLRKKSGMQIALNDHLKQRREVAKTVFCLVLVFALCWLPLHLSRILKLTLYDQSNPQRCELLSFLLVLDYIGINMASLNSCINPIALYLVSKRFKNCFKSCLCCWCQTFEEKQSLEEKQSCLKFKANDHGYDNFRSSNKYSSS
Procedure: as §1, with “Org. Med. Chem. Lett. in press (1992):” for “Org.”
ENDOTHELIN RECEPTOR BINDING ASSAY-B (ERBA-B) [^125 I]-ET-1 BINDING IN RAT CEREBELLAR MEMBRANES
The tissue is made up of 20 mM tris(hydroxy-methyl)aminomethane hydrochloride (Trizma) buffer, 2 mM ethylenediaminetetra acetate, 100 μM phenylmethylsulfonyl fluoride.
First, thaw one aliquot of frozen rat cerebellar membranes (2 mg protein in 0.5 mL). Next, add 0.5 mL membrane aliquot to 4.5 mL cold tissue buffer, polytron at 7,500 revolutions per minute for 10 seconds. Finally, dilute tissue suspension 1/100 (0.1 mL suspension+9.9 mL tissue buffer), polytron again, and place ice.
Medium 199 with Hank's salts plus 25 mM Hepes+1 mg/mL bovine serum albumin.
Amersham [^125 I]-ET-1 (aliquots of 2×10^6 cpm per […] aliquot of [^125 I]-ET-1 with 5.2 mL dilution buffer, place on ice until use (final concentration will be 20,000 cpm per tube, or 25 pM).
Add 50 μL each of cold [^125 ]-ET-1 and competing ligand to tubes on ice. Mix in 150 μL of tissue to each tube, vortex briefly, then tap to force all liquids to bottom (total assay volume=250 μL). Then place the tubes in a 37° C. water bath for 2 hours.
Add 2.5 mL cold wash buffer (50 mM Trizma buffer) to each tube, filter, and then wash tube with additional 2.5 mL wash buffer and add to filter. Finally, wash filters with an additional 2.5 mL of cold wash buffer.
Count filters for radioactivity in gamma counter.

[5] = test system: ETB; conditions: isolated, endothelium-intact porcine pulmonary arteries; cited from earlier work

Compound: C[C@](Cc1c[nH]c2ccccc12)(NC(=O)OC1C2CC3CC(C2)CC1C3)C(=O)NC(CC(=O)O)Cc1ccccc1 (stereo partly drawn) [Compound 5, N-[α-methyl-N-[(tricyclo[3.3.1.1^3,7]dec-2-yloxy)carbonyl]-D-tryptophyl]-D-3-(phenylmethyl)-β-alanine]
- IC50 [1]: 3.84 µM
- IC50 [2]: 34.5 µM

Compound: C[C@](Cc1c[nH]c2ccccc12)(NC(=O)OC1C2CC3CC(C2)CC1C3)C(=O)NC(CC(=O)O)Cc1ccc(N)cc1 (stereo partly drawn) [Compound 9, L-3-[(4-aminophenyl)methyl]-N-[α-methyl-N-[(tricyclo[3.3.1.1^3,7]dec-2-yloxy)carbonyl]-D-tryptophyl]-β-alanine]
- ERBA-A % inhibition at 10 μM [3]: 33.5%
- ERBA-B % inhibition at 10 μM [4]: 9.4%

Compound: ET[6-21, 1,3,11,15-Ala]
- Vasorelaxation [5]: caused vasorelaxation

Compound: C[C@](Cc1c[nH]c2ccccc12)(NC(=O)NC1CCCCC1)C(=O)O [Compound 16, N-[(cyclohexylamino)carbonyl]-α-methyl-D-tryptophan]
- IC50 [3]: 1500 nM
- IC50 [4]: > 10000 nM

Compound: Cc1[nH]c2ccccc2c1C[C@@H](NC(=O)OC1C2CC3CC(C2)CC1C3)C(=O)N[C@@H](Cc1ccccc1)C(=O)NCC(=O)O (stereo partly drawn) [Compound 10, N-[2-methyl-N-[(tricyclo[3.3.1.1^3,7]dec-2-yloxy)carbonyl]-D-tryptophyl]-L-phenylalanyl-glycine]
- inhibition at 10 µM [3]: 45%
- inhibition at 10 µM [4]: 39.7%

Compound: C[C@H]1CCCC[C@@H]1OC(=O)N[C@](C)(Cc1c[nH]c2ccccc12)C(=O)N[C@H](CC(=O)O)Cc1ccccc1 (relative stereo) [Compound 1, (1S-trans)-N-[α-methyl-N-[[(2-methyl-cyclohexyl)-oxy]carbonyl]-D-tryptophyl]-L-3-(phenylmethyl)-β-alanine]
- IC50 [3]: 46000 nM
- IC50 [4]: 1500 nM
- IC50 [1]: 0.72 µM
- IC50 [2]: 9.25 µM

Compound: CC(Cc1c[nH]c2ccccc12)(NC(=O)OC1C2CC3CC(C2)CC1C3)C(=O)NC(CSCC(=O)O)Cc1ccccc1 (stereo not drawn) [Compound 2, [R-(R*,S*)]-[[2-[[3-(1H-indol-3-yl)-2-methyl-1-oxo-2-[[(tricyclo[3.3.1.1^3,7]dec-2-yloxy)carbonyl]-amino]propyl]amino]-3-phenylpropyl]thio]acetic acid]
- IC50 [1]: 9.88 µM
- IC50 [2]: 9.06 µM

Compound: C[C@](Cc1c[nH]c2ccccc12)(NC(=O)OC1C2CC3CC(C2)CC1C3)C(=O)N(CCC(=O)O)CCc1ccccc1 (stereo partly drawn) [Compound 8, (R)-3-[[3-(1H-indol-3-yl) -2-methyl-1-oxo-2-[[(tricyclo[3.3.1.1^3,7]dec-2-yloxy)carbonyl]amino]-propyl](2-phenylethyl)amino]propanoic acid]
- inhibition at 10 µM [3]: 25%
- IC50 [4]: 910 nM and 1800 nM

Compound: CC(Cc1c[nH]c2ccccc12)(NC(=O)OC1C2CC3CC(C2)CC1C3)C(=O)NC(CCC(=O)O)Cc1ccccc1 (stereo not drawn) [Compound 7, [R-(R*,S*)]-γ-[[3-(1H-indol-3-yl)-2-methyl-1-oxo-2-[[(tricyclo[3.3.1.1^3,7]dec-2-yloxy)carbonyl]-amino]propyl]amino]benzenepentanoic acid]
- IC50 [4]: 870 nM

Compound: CC(Cc1c[nH]c2ccccc12)(NC(=O)OC1C2CC3CC(C2)CC1C3)C(=O)NC(C=CC(=O)O)Cc1ccccc1 (stereo not drawn) [Compound 6, [R-[R*,S*-(E)]]-4-[[3-(1H-indol-3-yl)-2-methyl-1-oxo-2-[[(tricyclo[3.3.1.1^3,7]dec-2-yloxy)carbonyl]-amino]propyl]amino]-5-phenyl-2-pentenoic acid]
- IC50 [4]: 870 nM

Compound: CC(Cc1c[nH]c2ccccc12)(NC(=O)OC1C2CC3CC(C2)CC1C3)C(=O)NC(CC(=O)O)Cc1ccc([N+](=O)[O-])cc1 (stereo not drawn) [Compound 11, [R-(R*,S*)]-β-[[3-(1H-indol-3-yl)-2-methyl-1-oxo-2-[[(tricyclo[3.3.1.1^3,7]dec-2-yloxy)carbonyl]-amino]propyl]amino]-4-nitrobenzenebutanoicacid]
- ERBA-A % inhibition at 10 μM [3]: 47.7%
- ERBA-B % inhibition at 10 μM [4]: 51.4%

Compound: CC(Cc1c[nH]c2ccccc12)(NC(=O)OC1C2CC3CC(C2)CC1C3)C(=O)NC(CCCCC(=O)O)Cc1ccccc1 (stereo not drawn) [Compound 15, [R-(R*,S*)]-ε-[[3-(1H-indol-3-yl)-2-methyl-1-oxo-2-[[(tricyclo[3.3.1.1^3,7]dec-2-yloxy)carbonyl]-amino]propyl]amino]benzeneheptanoic acid]
- ERBA-A % inhibition at 10 μM [3]: 51.6%
- ERBA-B % inhibition at 10 μM [4]: 36.5%

Compound: C[C@](Cc1c[nH]c2ccccc12)(NC(=O)OC1C2CC3CC(C2)CC1C3)C(=O)N(CCc1ccccc1)CC(=O)O (stereo partly drawn) [Compound 12, N-[α-methyl-N-[(tricyclo[3.3.1.1^3,7]dec-2-yloxy)carbonyl]-D-tryptophyl]-N-(2-phenylethyl)-glycine]
- inhibition at 10 µM [3]: 4.1%
- inhibition at 10 µM [4]: 86%
- Selectivity ETA / ETB from Table I [4]: selective for ETB
- IC50 [4]: 1800 nM

Compound: CC(Cc1c[nH]c2ccccc12)(NC(=O)OC1C2CC3CC(C2)CC1C3)C(=O)NC(C=CC=CC(=O)O)Cc1ccccc1 (stereo not drawn) [Compound 14, [R-[R*,S*-(E,E)]]-6-[[3-(1H-indol-3-yl)-2-methyl-1-oxo-2-[[(tricyclo[3.3.1.1^3,7]dec-2-yloxy)-carbonyl]amino]propyl]amino]-7-phenyl-2,4-heptadienoic acid]
- ERBA-A % inhibition at 10 μM [3]: 54.3%
- ERBA-B % inhibition at 10 μM [4]: 39.8%

Compound: CC(Cc1c[nH]c2ccccc12)(NC(=O)OC1C2CC3CC(C2)CC1C3)C(=O)N(CCc1ccccc1)CC(=O)O (racemic) [Compound 13, (±)-N-[3-(1H-indol-3-yl)-2-methyl-1-oxo-2-[[(tricyclo[3.3.1.1^3,7]dec-2-yloxy)carbonyl]amino]-propyl]-N-(2-phenylethyl)glycine]
- inhibition at 10 µM [3]: -0.2%
- inhibition at 10 µM [4]: 72.3%
- Selectivity ETA / ETB from Table I [4]: selective for ETB
- IC50 [4]: 4000 nM

Compound: CC(Cc1c[nH]c2ccccc12)(NC(=O)OC1C2CC3CC(C2)CC1C3)C(=O)NC(CC(=O)O)Cc1ccccc1 (stereo not drawn) [Compound 3, [R-(R*,S*)]-β-[[3-(1H-indol-3-yl)-2-methyl-1-oxo-2-[[(tricyclo[3.3.1.1^3,7]dec-2-yloxy)carbonyl]-amino]propyl]amino]benzenebutanoic acid]
- IC50 [1]: 0.96 µM
- IC50 [2]: 7.91 µM
